In series [1] the test system is cytokine levels. In words: Multiplex Luminex cytokine levels in short-term succinate-treated TNFΔARE/+ animals.
The test system of series [2] is TCA cycle genes.
For series [3], the system named is tuft cells. The protocol:
(§1) Immunofluorescence staining and imaging: Paraffin-embedded ileal tissues were section (5 μm) prior to deparaffinization, rehydration, and antigen retrieval using a citrate buffer (pH 6.0) for 20 minutes in a pressure cooker at 105° C., followed by a 20-minute cool down at room temperature (RT). Endogenous background signal was quenched by incubating tissue slides in 3% hydrogen peroxide for 10 minutes at RT. Tissue sections were blocked in staining buffer (3% bovine serum albumin/10% normal donkey serum) for 1 hour at RT prior to incubation with primary antibody overnight at RT. Antibodies used for immunofluorescence included those against LYZ1 (DAKO, 1:100, rabbit), MUC2 (Santa Cruz, 1:100, rabbit), MPO (DAKO, 1:100, rabbit), DCLK1 (Santa Cruz, 1:100, goat), FOXP3 (eBioscience, 1:50, rat), and GATA3 (Abcam, 1:50, rabbit). Sections were then incubated with AlexaFluor (AF)-555- or AF-647-conjugated secondary antibodies (Life Technologies, 1:500) for 1 hour at RT and Hoechst (1:10,000, Life Technologies) for 10 min at RT. For human tuft cell labeling, AF-488-conjugated pEGFR (Abcam, 1:100) and unconjugated COX2 (CST, 1:100, rabbit) were used. Slides were incubated with anti-rabbit AF-647-conjugated secondary antibody and stained with Hoechst. Imaging was performed using a Zeiss Axio Imager M2 microscope with Axiovision digital imaging system (Zeiss, Jena GmBH, Germany).

Series [4] has as its system ATOH1-independent tuft cells. As to conditions: antibiotic-treated AtohKO animals; small intestine. The source says: (§2) Mid-dose antibiotics and low-dose antibiotics were 0.75× and 0.25× of the original 1× concentration, respectively.
The test system of series [5] is TNF^ΔARE/+ model of Crohn's-like ileitis. Conditions: TNFΔARE/+ ileum. The protocol:
Mouse Experiments: All animal protocols were approved by the Vanderbilt University Animal Care and Use Committee and in accordance with NIH guidelines. Lrig1^CreERT2 and Atoh1^flox/flox strains, each in a C57BL/6 background, were purchased from Jackson Laboratory to generate Lrig1^CreERT2/+; Atoh1^fl/fl (AtohKO) animals Cre recombinase activity was induced in two- or three-month-old Lrig1^CreERT2/+; Atoh1^fl/fl and Lrig1^+/+; Atoh1^fl/fl males via intraperitoneal administration of 2 mg of tamoxifen (Sigma-Aldrich) for four consecutive days. Mice were sacrificed and tissues were harvested twenty-one days after the first injection. TNF^ΔARE/+ and wildtype littermates were sacrificed at four months of age after disease onset, followed by tissue collection Animal weights were recorded at regular intervals.
as §2, §1
Image quantification: To quantify human tuft cells, the number of crypt and villus structures were counted per field of view (FOV) for each subject (approximately 15-20 FOVs per sample). Tuft cell number, as identified by pEGFR and COX co-labeling, was manually counted per FOV in a blinded fashion. Quantification of tuft cell number per epithelial structure (crypt and villus) was generated for each subject and then stratified by disease state (“normal” or “Crohn's disease”) based on the pathology report. Results were analyzed by t-test using Prism GraphPad. For MUC2 quantification, manual demarcation of the epithelial villi was performed in each FOV and a nuclear mask was generated based on Hoechst staining.

Series [6] concerns AtohKO enteroids. As to the kind of experiment: IL-13 administration in enteroids. As to conditions: level similar to IL-13 in control enteroids. The series is classed as cell-based, mouse. The protocol:
Enteroid Experiment: Ileal tissue was dissected and incubated in chelation buffer (3 mM EDTA/EGTA, 0.5 mM DTT, 1% P/S) at 4° C. for 45 minutes. The tissue was shaken in PBS and filtered through a 100 μm filter to isolate individual ileal crypts. The crypt suspension was centrifuged at 2.8×1000 RPM for 1½ minutes at 4° C. following which 10 μl of crypt pellet was resuspended in 300 μl of reduced growth factor Matrigel and embedded in a 24-well dish. Enteroids were cultured initially in IntestiCult Organoid Growth Medium (StemCell Technologies) supplemented with Primocin antimicrobial reagent (InvivoGen, 1:1000) for 4 days before being changed to Primocin-supplemented differentiation media. For ex vivo Cre-activation, Lrig1^CreERT2/+ Atoh1^fl/fl enteroids were treated overnight at 37° C. with either 1 μM 4-hydroxytamoxifen (Sigma-Aldrich) or vehicle (ethanol) in differentiation media. Enteroids were passaged the following day into 8-well chamber slides and, after 5 days, were fixed on ice using 4% PFA for immunofluorescence staining.
Enteroid Immunofluorescence Staining: Fixed enteroids were permeabilized with Triton X-100 for 30 min and blocked with 1% normal donkey serum (PBS) for 30 min at RT. Enteroids were stained with primary antibodies against LYZ1 (DAKO, 1:100, rabbit), MUC2 (Santa Cruz, 1:100, rabbit), and DCLK1 (Santa Cruz, 1:100, goat). […]

The mark [7] stands for this setting: short-term succinate vs untreated controls.
Where [8] appears, read: succinate-treated intestinal tissues.

Like-named read-outs stand apart in the source and are kept apart here.

The text below walks through data of US20220047538A1, “TUFT CELL SPECIFICATION IN INFLAMMATORY ILEITIS” (VANDERBILT UNIVERSITY, priority 2019, published 2022).

Take `O=C(O)CCC(=O)O` [succinate, succinic acid]: in series [1] (short-term (<1 week) succinate), the IL-17A result was “significant increase”, the IL-17F result is recorded as “significant increase”, the IL-22 levels result was “increased levels” and the IL-23 levels result is reported as “significantly reduced”. In addition, the IL-27 expression entry in series [1] (short-term (<1 week) succinate) was “induced”. In series [1] (short-term succinate), the IL-5 result is listed as “increased”, the IL-9 entry is given as “increased” and the IL-10 entry was “increased”. Further, in series [1] (setting [7]), the IL-4 levels entry is “significantly increased”, the IL-13 levels result is on record as “significantly increased” and the IL-25 levels result is on record as “significantly increased”. For the same molecule, in series [1] (succinate treatment), the TNF-α levels entry is listed as “did not result in decreased TNF-α levels”. The “expression of Idh3b, Idh3a, Sdha, Sdhd in the tuft cell lineage” value in series [2] (exogenous succinate treatment) is “induced”. Further, the “expression of genes such as Sdhc in the secretory lineage” value in series [2] (succinate treatment) was “significantly reduced”. In addition, in series [2] (untreated and succinate-treated enterocytes), the “relative expression of Mdh2 and Sdhc in enterocytes” value is on record as “constitutively high”. For the same molecule, the tuft cell expansion entry in series [3] (exogenous succinate administration, small intestine) is “induces tuft cell expansion”. For the same molecule, the “tuft cell expansion in the colon” value in series [3] (succinate administration, colon) is “did not induce tuft cell expansion”. For the same molecule, in series [3] (setting [8]), the “GATA3+ cells” value was “increased” and the “major basic protein-positive eosinophils” value is recorded as “increased”. Further, the tuft cell expansion entry in series [4] is listed as “restored tuft cell expansion to microbiome-replete levels”. For the same molecule, the “FOXP3+ T-regulatory cells” value in series [5] (long-term (1 month) succinate treatment) is “significantly reduced”. Further, in series [5] (succinate-treated), the “DCLK1+ tuft cells” value is reported as “increased” and the “stromal LYZ1 expression” value is reported as “less stromal LYZ1 expression”. In series [5] (succinate-treated vs control), the “depth of inflammation (0-4), pathological scoring” value is listed as “decreased mucosal destruction” and the “extent of tissue injury (0-4), pathological scoring” value is reported as “decreased mucosal destruction”. Further, where the note is “TNFΔARE/+ animals, succinate in drinking water”, the weight gain result is “failed to gain as much weight as untreated controls”. In addition, where the note is “wildtype animals treated with succinate”, the weight gain result is given as “minimal weight gain”.

For “IL-13: type 2 cytokine interleukin-13 administered to enteroids”, in series [6], the “tuft cell specification and expansion” value is “induced tuft cell specification and expansion”.
